Patent US7183274B2, “Piperidine-2,6-diones heterocyclically substituted in the 3-position” (Gruenenthal GmbH, priority 2001, dated 2007)
≈ marks a conversion by molar mass, not a printed value.

Key:
[1] = test system: IL-12 production of LPS-activated monocytes; experiment: Inhibition of IL-12 production of LPS-activated human monocytes (ELISA of culture supernatant); format: cell-based; conditions: 20 μg/ml LPS from E. coli, 24 hours; for IC50: Monocyte
Description: (§1) Stimulation of human monocytes with lipopolysaccharide for the secretion of IL-10 and IL-12:
(§2) Human monocytes were isolated from peripheral blood mononuclear cells (PBMC) that had been obtained by means of a ficoll density gradient centrifugation from heparinized full blood. For this purpose the PBMC were incubated with a monoclonal antibody that is directed against the monocyte-specific surface molecule CD14 and on which are coupled superparamagnetic microbeads (Miltenyi Biotech, Bergisch Gladbach). For the positive selection of the marked monocytes from the cell mixture of the PBMC, the total cell suspension was added to a column with ferromagnetic carrier matrix and this was placed in a magnetic field. In this way the cells that were loaded with microbeads were bound to the carrier matrix while unmarked cells passed through the column and were discarded. After removing the matrix from the magnetic field the antibody-loaded cells were eluted by rinsing the now demagnetized column with buffer. The purity of the CD14-positive monocyte population obtained in this way is about 95–98%. These monocytes were incubated for 1 hour at 37° C. and 5% CO2 in a density of 10^6 cells/ml culture medium (RPMI, supplemented with 10% fetal calf serum) with the test substances dissolved in DMSO. 20 μg/ml LPS from E. coli were then added. After 24 hours cell-free culture supernatants were taken and tested for their content of IL-10 as well as IL-12.
(§3) The concentration of IL-12 and IL-10 in the cell culture supernatants was determined by means of sandwich ELISAs using two anti-IL-12 and IL-10 monoclonal antibodies (Biosource Europe, Fleurus, Belgium). A reference standard curve with human IL-10 and IL-12 was included. The detection limit of the IL-12 ELISA was 10 pg/ml, and that of the IL-10 ELISA was 15 pg/ml.

[2] = test system: IL-10 production of LPS-activated monocytes; experiment: Increase in IL-10 production of LPS-activated human monocytes (ELISA of culture supernatant); format: cell-based; conditions: 20 μg/ml LPS from E. coli, 24 hours
Description: as §1, §2, §3

| IC50 [1] | SMILES | Inhibition of IL-12 Production Maximum (%) [1] | Increase in IL-10 Production Maximum (%) [2] | Inhibition of IL-12 Production IC50 [1] |
| --- | --- | --- | --- | --- |
| 0.0008 µg/mL | Cl.O=C1CCC(N2C=Nc3cc(F)ccc3C2)C(=O)N1 (stereo not drawn) [Example 7f, 3-(7-fluoro-4H-quinazolin-3-yl)piperidine-2,6-dione; hydrochloride] | 98% | 420% | – |
| 0.05 µg/mL (≈ 0.194 µM) | Cc1cccc2c1CN(C1CCC(=O)NC1=O)C=N2 (stereo not drawn) [Example 7m, 3-(5-methyl-4H-quinazolin-3-yl)piperidine-2,6-dione] | 89% | 202% | – |
| 0.042 µg/mL (≈ 0.15 µM) | O=C1CCC(N2C=Nc3cc(F)c(F)cc3C2)C(=O)N1 (stereo not drawn) [Example 7n, 3-(6,7-difluoro-4H-quinazolin-3-yl)piperidine-2,6-dione] | 84% | 263% | – |

Second part, the compound before the results:

| SMILES | IC50 [1] | Inhibition of IL-12 Production Maximum (%) [1] | Increase in IL-10 Production Maximum (%) [2] | Inhibition of IL-12 Production IC50 [1] |
| --- | --- | --- | --- | --- |
| Br.O=C1CCC(N2C=Nc3cc(Cl)ccc3C2)C(=O)N1 (stereo not drawn) [Example 1, 3-(7-chloro-4H-quinazolin-3-yl)piperidine-2,6-dione; hydrobromide] | 0.005 µg/mL | 99% | 360% | – |
| Br.O=C1CCC(N2C=Nc3ccccc3C2)C(=O)N1 (stereo not drawn) [Example 3, 3-(4H-quinazolin-3-yl)piperidine-2,6-dione; hydrobromide] | 0.01 µg/mL | 98% | 230% | – |
| O=C1CCC(N2C=Nc3cccc(Cl)c3C2)C(=O)N1 (stereo not drawn) [Example 7a, 3-(5-chloro-4H-quinazolin-3-yl)piperidine-2.6-dione] | – | 98% | 365% | 0.001 µg/mL |
| O=C1CCC(N2C=Nc3cccc(F)c3C2)C(=O)N1 (stereo not drawn) [Example 7h, 3-(5-fluoro-4H-quinazolin-3-yl)piperidine-2.6-dione] | – | 97% | 316% | 0.006 µg/mL |
| O=C1CCC(N2C=Nc3cccc([N+](=O)[O-])c3C2)C(=O)N1 (stereo not drawn) [Example 7i, 3-(5-nitro-4H-ginazolin-3-yl)piperidine-2,6-dione] | – | 96% | 211% | 0.036 µg/mL |
| O=C1CCC(N2C(=O)c3ccccc3C2=O)C(=O)N1 (stereo not drawn) [Thalidomide, thalidomide, reference compound] | 0.1 µg/mL (≈ 0.387 µM) | 80% | 180% | – |
